# Starred links: 1 amine or outer side, 2 acyl side, 3 side chain; linkers in the order of their positions; H or OH if unused. Positions of bridges follow the written chain, without caps; N, C: chain ends. Non-standard residues stand in square brackets, D forms with d. Residues, ends and D or L forms follow the SMILES beside them. Trp(2-yl) = O=C([C@H](Cc1c([*:3])[nH]c2ccccc12)N[*:1])[*:2]; Pro(trans-4-guanidino) = N=C(N)N[C@H]1CN[C@H](C(=O)O)C1; Pro(4R-SH) = O=C([C@@H]1C[C@@H](S[*:3])CN1[*:1])[*:2]; Ile(4R-OH,5-OH) = C[C@H]([C@H](N)C(=O)O)[C@@H](O)CO; X1 = N#C[C@@H]1C[C@@H](C(=O)[*:2])N([*:1])C1; Pro(4R-NH2) = N[C@H]1CN[C@H](C(=O)O)C1
# Assay: Cell viability assay (BrdU incorporation) on HEK293-OATP1B3 cells
# Assay type: cell-based, human
# Conditions: human, HEK293 cells overexpressing OATP1B3 (HEK293-OATP1B3); highest used concentration of 1 μM; HEK293-OATP1B3 cells
# Procedure: . HEK293 and HEK-OATP1B3 cells were plated at 2.5×10^3 cells/well in a 1:1 mixture of Ham's F12 with DMEM containing 10% charcoal-stripped fetal calf serum (FCS) onto poly-D-lysine-coated 96-well plates and grown for 24 hours. Subsequently, cells were incubated with amanitin analogs at 8 different concentrations (1×10^−6 M to 1.28×10^−11 M, serial 1:5 dilutions). Following 96 h of drug exposure, cell viability was determined by a BrdU incorporation assay (Cell Proliferation ELISA, BrdU, Roche) and chemiluminescence was measured using a FLUOstar Optima plate reader (BMG LABtech). Data analysis was performed with GraphPad Prism 8 (GraphPad Software, Inc., La Jolla, CA) software to plot curve fits.
row,SMILES,"viability at 96 h, 1 µM [%]"
1,"CC[C@H](C)[C@@H]1NC(=O)CNC(=O)[C@@H]2Cc3c([nH]c4ccccc34)SC[C@H](NC(=O)CNC1=O)C(=O)N[C@@H](CC(N)=O)C(=O)N1C[C@H](N)C[C@H]1C(=O)N[C@@H]([C@@H](C)[C@@H](O)CO)C(=O)N2 [Compound 6, NH2-Pro-amanitin] (cyclo(CN[Pro(4R-NH2)][Ile(4R-OH,5-OH)][Trp(2-yl)]GIG); thioether 1-5)",33
2,"CC[C@H](C)[C@@H]1NC(=O)CNC(=O)[C@@H]2Cc3c([nH]c4ccccc34)SC[C@H](NC(=O)CNC1=O)C(=O)N[C@@H](CC(N)=O)C(=O)N1C[C@H](S)C[C@H]1C(=O)N[C@@H]([C@@H](C)[C@@H](O)CO)C(=O)N2 [Compound 5, SH-Pro-amanitin] (cyclo(CN[Pro(4R-SH)][Ile(4R-OH,5-OH)][Trp(2-yl)]GIG); thioether 1-5)",50
3,"CC[C@H](C)[C@@H]1NC(=O)CNC(=O)[C@@H]2Cc3c([nH]c4ccccc34)SC[C@H](NC(=O)CNC1=O)C(=O)N[C@@H](CC(N)=O)C(=O)N1C[C@H](NC(=N)N)C[C@H]1C(=O)N[C@@H]([C@@H](C)[C@@H](O)CO)C(=O)N2 [Compound 7, Gdn-Pro-amanitin] (cyclo(CN[Pro(trans-4-guanidino)][Ile(4R-OH,5-OH)][Trp(2-yl)]GIG); thioether 1-5)",86
4,"CC[C@H](C)[C@@H]1NC(=O)CNC(=O)[C@@H]2Cc3c([nH]c4ccccc34)SC[C@H](NC(=O)CNC1=O)C(=O)N[C@@H](CC(N)=O)C(=O)N1C[C@H](C#N)C[C@H]1C(=O)N[C@@H]([C@@H](C)[C@@H](O)CO)C(=O)N2 [Compound 4, CN-Pro-amanitin] (cyclo(CN[X1][Ile(4R-OH,5-OH)][Trp(2-yl)]GIG); thioether 1-5)",43

# Reference: patent US20240082416A1, “AMATOXIN ANALOGS AND USES THEREOF” (THE UNIVERSITY OF BRITISH COLUMBIA, priority 2020, published 2024)
